Data from patent publication US4500545A, “Hydroxyaminotetralincarboxamides” (Eli Lilly and Company, priority 1984, dated 1985).
Entries after “also recorded” stand apart in the source; their conditions may differ.

Legend:
[1] = test system: mean arterial blood pressure, anesthetized spontaneously hypertensive rats; assay: Blood pressure lowering in anesthetized spontaneously hypertensive rats (SHR); type: in vivo, rat (spontaneously hypertensive); settings: ± standard error
Experimental: As previously stated, the compounds of this invention are dopamine agonists. As such, one of their properties, shared by many dopamine agonists, is the ability to lower blood pressure in anesthetized spontaneously hypertensive rats (SHR). Table 1 which follows gives the results of testing compounds of this invention which lowered the blood pressure of anesthetized SHR at dose levels of 1 mg./kg. or lower. In the Table, the first 4 columns give the substitution pattern of the hydroxyaminonaphthalene carboxamide and the second 4 columns the percent blood pressure lowering±standard error for the particular compound at 4 different dose levels.

prolactin secretion = assay: Prolactin secretion inhibition in reserpine-treated rats; type: in vivo, rat (adult male Sprague-Dawley); settings: 1 mg./kg. intraperitoneal; reserpine-pretreated male rats; serum 1 hour after treatment
Experimental: The compounds of this invention are also useful as inhibitors of prolactin secretion. Dopaminergic drugs with such activity can be employed in the treatment of inappropriate lactation, such as postpartum lactation and galactorrhea. […] Each rat received an intraperitoneal injection of 2.0 mg. of reserpine in aqueous suspension 18 hours before administration of the test compound. The purpose of the reserpine was to keep prolactin levels uniformly elevated. The compounds under test were dissolved in water and were injected intraperitoneally at a 1 mg./kg. dose level. Each compound was administered to a group of 10 rats, and a control group of 10 intact males received an equivalent amount of solvent only. One hour after treatment all rats were killed by decapitation, and 150 μl. aliquots of serum were assayed for prolactin.
In the table, column 1 gives the name of the compound and column 2, the percent inhibition of prolactin secretion. The dosage was 1 mg./kg.

[2] = test system: 6-hydroxydopamine-lesioned rats (nigro-neostriatal-lesioned), turning behavior; assay: Turning behavior in 6-hydroxydopamine-lesioned rats; type: in vivo, rat; settings: 1 mg./kg. intraperitoneal; for Number of turns (average): counted over a 15-minute period after latency
Excerpt: Compounds with dopaminergic or dopamine agonist activity also affect turning behavior in a test procedure utilizing 6-hydroxydopamine-lesioned rats. In this test, nigro-neostriatal-lesioned rats, prepared by the procedure of Ungerstedt and Arbuthnott, Brain Res, 24, 485 (1970), are employed. A compound having dopamine agonist activity, upon injection, causes the rats to turn in circles contralateral to the side of the lesion. After a latency period, which varies from compound to compound, the number of turns is counted over a 15-minute period. The drugs to be administered are dissolved in water and the resulting aqueous solution injected into the rat by the intraperitoneal route at a 1 mg./kg. dose level.

dopamine receptor = settings: literature; cited from earlier work
[3] = literature; cited from earlier work

| Structure (SMILES) | Percent lowering of mean arterial blood pressure ([1]; 1 mg./kg.) | Percent lowering of mean arterial blood pressure ([1]; 7 mcg./kg.) | Percent lowering of mean arterial blood pressure ([1]; 10 mcg./kg.) | Percent lowering of mean arterial blood pressure ([1]; 100 mcg./kg.) | Percent Inhibition of Prolactin Secretion (prolactin secretion) | dopamine-like activity (in words) (dopamine receptor) | other results |
| --- | --- | --- | --- | --- | --- | --- | --- |
| CN(C)C1CCc2c(ccc(O)c2C(N)=O)C1 (racemic) [R=CONH2, R^1=H, R^2=Me, R^3=Me, dl-2-hydroxy-6-dimethylamino-5,6,7,8-tetrahydro-1-naphthalenecarboxamide] | -6.0 ± 0.5% | -6.8 ± 0.3% | -5.7 ± 0.3% | -6.7 ± 0.8% |  |  |  |
| CN(C)C1CCc2cc(O)c(C(N)=O)cc2C1 (racemic) [dl-3-hydroxy-7-dimethylamino-5,6,7,8-tetrahydro-2-naphthalenecarboxamide] | -32.5 ± 2.2% | -6.2 ± 0.7% | -14.0 ± 0.5% | -25.1 ± 3.0% | 36% |  | Percentage of rats exhibiting turning behavior [2]: 50%; Number of turns (average) [2]: 20 |
| CCCN(CCC)C1CCc2c(ccc(O)c2C(N)=O)C1 (racemic) [dl-2-Hydroxy-6-di-n-propylamino-5,6,7,8-tetrahydro-1-naphthalenecarboxamide] |  |  |  |  | 12% |  |  |
| NC(=O)c1c(O)ccc2c1CCC(N)C2 (racemic) [dl-2-Hydroxy-6-amino-5,6,7,8-tetrahydronaphthalene-1-carboxamide] |  |  |  |  | 13% |  |  |
| NC1CCc2cc(O)c(O)cc2C1 (centres unmarked) [ADTN, 2-amino-6,7-dihydroxy-1,2,3,4-tetralin] |  |  |  |  |  | dopamine-like action |  |
| NC(=O)c1cc2c(cc1O)CCC(N)C2 (racemic) [dl-3-Hydroxy-7-amino-5,6,7,8-tetrahydro-2-naphthlenecarboxamide] | -18.3 ± 4.3% | -3.6 ± 0.4% | -5.2 ± 0.8% | -10.2 ± 1.2% | 18% |  |  |
| CN(C)C1CCc2cc(O)c(O)cc2C1 (stereo not drawn) [6,7-dihydroxy isomer] |  |  |  |  |  | presynaptic dopamine receptor agonist |  |
| CN(C)C1CCc2c(ccc(O)c2O)C1 (centres unmarked) [Example M7, 2-dimethylamino-5,6-dihydroxy-1,2,3,4-tetralin] |  |  |  |  |  | dopamine-like activity; also recorded: Its action parallels that of apomorphine |  |
| CC(C)NC1CCc2c(ccc(O)c2CO)C1O (centres unmarked) [1-hydroxymethyl-2,5-dihydroxy-6-isopropylamino-5,6,7,8-tetrahydronaphthalene] |  |  |  |  |  |  | bronchodilator activity (in words) [3]: bronchodilator |
| CCCN(CCC)C1CCc2cc(O)c(C(N)=O)cc2C1 (racemic) [dl-3-Hydroxy-7-di-n-propylamino-5,6,7,8-tetrahydro-2-naphthalenecarboxamide] | -41.9 ± 1.6% | -6.8 ± 0.5% | -19.6 ± 0.8% | -35.9 ± 2.3% | 88% |  | Percentage of rats exhibiting turning behavior [2]: 75%; Number of turns (average) [2]: 71 |
